pIC50: −log10 of the molar value. Like-named read-outs stand apart in the source and are kept apart here. Starred links: 1 amine or outer side, 2 acyl side, 3 side chain; linkers in the order of their positions; H or OH if unused. Positions of bridges follow the written chain, without caps; N, C: chain ends. Non-standard residues stand in square brackets, D forms with d. Residues, ends and D or L forms follow the SMILES beside them. Pyridine(2,6-diCH2) = c1cc(C[*:1])nc(C[*:2])c1; Trp(5-F) = N[C@@H](Cc1c[nH]c2ccc(F)cc12)C(=O)O; Trp(1-Me) = Cn1cc(C[C@H](N)C(=O)O)c2ccccc21; NMeW = CN[C@@H](Cc1c[nH]c2ccccc12)C(=O)O; X4 = O=C(CCSCc1cccc(CSCCN[*:1])c1)[*:2]; 2Nal = N[C@@H](Cc1ccc2ccccc2c1)C(=O)O; TBMB = c1c(C[*:1])cc(C[*:3])cc1C[*:2]; mXylylene = c1cc(C[*:1])cc(C[*:2])c1; AEF = NCCOc1ccc(C[C@H](N)C(=O)O)cc1; NMeY = CN[C@@H](Cc1ccc(O)cc1)C(=O)O; X21 = O=C(Cc1cccc(CN[*:2])c1)[*:1]; NMeT = CN[C@H](C(=O)O)[C@@H](C)O; dNMeL = CN[C@H](CC(C)C)C(=O)O; αMeP = C[C@@]1(C(=O)O)CCCN1; dDab = NCC[C@@H](N)C(=O)O; Nva = CCC[C@H](N)C(=O)O; Mpa = O=C(O)CCS
Tests used:
PCSK9 = PCSK9 (Homo sapiens (Human), UniProt Q8NBP7); experiment: PCSK9 Alexa FRET Standard assay (displacement of AlexaFluor647 tagged cyclic peptide Reagent A); type: binding
PCSK9, sequence (Q8NBP7 153-692): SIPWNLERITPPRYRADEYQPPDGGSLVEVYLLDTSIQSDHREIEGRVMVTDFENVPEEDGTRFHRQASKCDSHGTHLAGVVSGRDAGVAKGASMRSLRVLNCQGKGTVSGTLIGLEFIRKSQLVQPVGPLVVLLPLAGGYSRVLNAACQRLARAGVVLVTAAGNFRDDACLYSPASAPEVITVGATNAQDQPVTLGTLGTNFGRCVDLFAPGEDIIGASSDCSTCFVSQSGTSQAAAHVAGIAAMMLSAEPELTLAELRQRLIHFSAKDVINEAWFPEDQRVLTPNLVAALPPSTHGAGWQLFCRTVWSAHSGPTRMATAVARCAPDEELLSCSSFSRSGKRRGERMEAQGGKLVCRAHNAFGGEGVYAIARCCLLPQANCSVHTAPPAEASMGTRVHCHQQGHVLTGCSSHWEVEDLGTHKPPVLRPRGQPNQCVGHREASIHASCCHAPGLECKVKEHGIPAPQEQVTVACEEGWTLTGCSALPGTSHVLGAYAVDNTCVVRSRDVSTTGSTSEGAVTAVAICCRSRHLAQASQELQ
In short: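 TR-FRET displacement: 0.5 nM biotinylated PCSK9 with 1.25 nM Strep-Eu and 20 nM AlexaFluor-tagged cyclic peptide (final) in 50 mM HEPES pH 7.4, 0.15 M NaCl, 5 mM CaCl2, 0.01% BSA, 0.01% P20, ≥2 h at room temperature. IC50 from sigmoidal fit, converted to Ki via peptide KD; falling Eu counts flagged false positives.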

[1] = molecular target: human PCSK9 / human LDLR EGFa domain interaction (Homo sapiens (Human), UniProt Q8NBP7); experiment: TR-FRET assay of inhibition of the PCSK9-LDLR protein-protein interaction; type: binding
human PCSK9 / human LDLR EGFa domain interaction, sequence (Q8NBP7 153-692): as above
human PCSK9 / human LDLR EGFa domain interaction, sequence (Q8NBP7 31-152 partner): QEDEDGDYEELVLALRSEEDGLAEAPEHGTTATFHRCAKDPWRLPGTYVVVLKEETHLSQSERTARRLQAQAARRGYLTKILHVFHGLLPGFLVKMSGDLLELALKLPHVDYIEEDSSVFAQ
In short: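 Half-maximal inhibitory concentrations came from 4-parameter fits of dose-response data. Proteins: biotinylated PCSK9, His-tagged LDLR EGFa, 20 nM each; labels 5 nM; 2 h, room temperature; buffer 50 mM HEPES, 150 mM NaCl, 5 mM CaCl2.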

[2] = PCSK9 Alexa FRET Standard assay, 0.5 nM PCSK9, 20 nM AF cyclic peptide Reagent A, read-out: IC50
[3] = TR-FRET, 20 nM human PCSK9, 20 nM human LDLR EGFa domain, 2 hours room temperature, read-out: IC50

SMILES	pIC50 (PCSK9; [2])	pIC50 [1, 3]	pIC50 (PCSK9; IC50)	pIC50 [1]
COc1ccc(C[C@@H]2NC(=O)[C@H](Cc3cnc[nH]3)NC(=O)[C@H](CC(=O)O)NC(=O)[C@H](Cc3c[nH]c4ccc(F)cc34)NC(=O)[C@H](Cc3c[nH]c4ccc(F)cc34)NC(=O)[C@@H](C)NC(=O)[C@H](NC(C)=O)CCCCNC(=O)Cc3cccc(c3)CNC(=O)C[C@@H](C(N)=O)NC(=O)[C@]3(C)CCCN3C2=O)cc1 [Compound 394] (Ac-[dK][dA][Trp(5-F)][Trp(5-F)]DHY(Me)[αMeP]D-NH2; linker 1-9 via X21)	6.00 to 7.00	6.00 to 7.00		
CCC[C@@H]1NC(=O)CCSCc2cccc(c2)CSC[C@@H](C(N)=O)NC(=O)[C@@H]2CCCN2C(=O)[C@H](Cc2ccc(OC)cc2)NC(=O)[C@H]([C@@H](C)OC)N(C)C(=O)[C@@H]2CCCN2C(=O)[C@H](Cc2cn(C)c3ccccc23)NC(=O)[C@H](Cc2ccc3ccccc3c2)NC(=O)[C@@H](CC(C)C)N(C)C1=O [Compound 046] ([Mpa][Nva][dNMeL][2Nal][Trp(1-Me)]P[NMeT](Me)Y(Me)PC-NH2; linker 1-10 via mXylylene)	7.00 to 9.96	7.00 to 10.00		
CC(=O)N[C@H]1CCCc2cn(nn2)CCC[C@@H](C(N)=O)NC(=O)[C@]2(C)CCCN2C(=O)[C@H](Cc2ccc(O)cc2)NC(=O)[C@H](Cc2cnc[nH]2)NC(=O)[C@H](CC(=O)O)NC(=O)[C@H](Cc2c[nH]c3ccc(F)cc23)NC(=O)[C@H](Cc2c[nH]c3ccc(F)cc23)NC(=O)CNC(=O)[C@H](C)NC1=O [Compound 342]	4.92 to 6.00	4.92 to 6.00		
C[C@H]1NC(=O)[C@H](CCCCN)NC(=O)CCSCc2cccc(c2)CSCCNC(=O)[C@]2(C)CCCN2C(=O)[C@H](Cc2ccc(O)cc2)N(C)C(=O)[C@H](Cc2c[nH]cn2)NC(=O)[C@H](CC(=O)O)NC(=O)[C@H](Cc2c[nH]c3ccc(F)cc23)NC(=O)[C@H](Cc2c[nH]c3ccccc23)N(C)C1=O [Compound 276] (cyclo(DH[NMeY][αMeP][X4]K[dA][NMeW][Trp(5-F)]))			6.00 to 7.00	7.00 to 10.00
CCCCCCCCCCCCCCCC(=O)N[C@@H](CCC(=O)NCCOCCOCC(=O)NCCOCCOCC(=O)NCCCC[C@H](NC(=O)CCOCCOCCOCCOCCOCCOCCOCCOCCNC(=O)CCOCCOCCOCCOCCOCCOCCOCCOCCOCCOCCOCCOCCNC(=O)[C@@H]1CSCc2cccc(c2)CSCCC(=O)N[C@@H](C)C(=O)N[C@H](C)C(=O)N[C@@H](Cc2c[nH]c3ccc(F)cc23)C(=O)N[C@@H](Cc2c[nH]c3ccc(F)cc23)C(=O)[C@@H]2C[C@H](F)CN2C(=O)N[C@@H]([C@@H](C)O)C(=O)N[C@@H](Cc2ccc(O)cc2)C(=O)N2CCC[C@@]2(C)C(=O)N1)C(N)=O)C(=O)O [Compound 133]	4.92 to 6.00	4.92 to 6.00		
CC(=O)N[C@H]1CC(=O)NCCOc2ccc(cc2)C[C@@H](C(N)=O)NC(=O)[C@]2(C)CCCN2C(=O)[C@H](Cc2ccc(O)cc2)NC(=O)[C@H](Cc2c[nH]cn2)NC(=O)[C@H](CC(=O)O)NC(=O)[C@H](Cc2c[nH]c3ccc(F)cc23)NC(=O)[C@H](Cc2c[nH]c3ccc(F)cc23)NC(=O)CNC(=O)[C@H](C)NC1=O [Compound 310] (Ac-DAG[Trp(5-F)][Trp(5-F)]DHY[αMeP][AEF]-NH2; lactam 1-10)	4.92 to 6.00	4.92 to 6.00		

The next lines start with results.

pIC50 (PCSK9; [2])	pIC50 [1, 3]	SMILES	pIC50 (PCSK9; IC50)	pIC50 [1]
6.00 to 7.00	6.00 to 7.00	C[C@@]12CCCN1C(=O)[C@H](Cc1ccc(O)cc1)NC(=O)[C@H](Cc1cnc[nH]1)NC(=O)[C@H](CC(=O)O)NC(=O)[C@H](Cc1c[nH]c3ccc(F)cc13)NC(=O)[C@H](Cc1c[nH]c3ccc(F)cc13)NC(=O)CNC(=O)[C@@H](CCN)NC(=O)CCSCc1cccc(c1)CSC[C@@H](C(N)=O)NC2=O [Compound 355] ([Mpa][dDab]G[Trp(5-F)][Trp(5-F)]DHY[αMeP]C-NH2; linker 1-10 via mXylylene)		
4.92 to 6.00	4.92 to 6.00	COc1ccc(C[C@@H]2NC(=O)[C@H]([C@@H](C)O)NC(=O)[C@@H]3CCCN3C(=O)[C@H](Cc3c[nH]c4ccc(F)cc34)NC(=O)[C@H](Cc3c[nH]c4ccc(F)cc34)NC(=O)[C@@H](C)NC(=O)[C@H](CCCCN)NC(=O)CCSCc3cc(C)cc(c3)CSC[C@@H](C(N)=O)NC(=O)[C@]3(C)CCCN3C2=O)cc1 [Compound 062] ([Mpa]K[dA][Trp(5-F)][Trp(5-F)]PTY(Me)[αMeP]C-NH2; linker 1-10 via TBMB)		
6.00 to 7.00	7.00 to 10.00	COc1ccc(C[C@@H]2NC(=O)[C@H]([C@@H](C)O)NC(=O)[C@@H]3CCCN3C(=O)[C@H](Cc3c[nH]c4ccc(F)cc34)NC(=O)[C@H](Cc3c[nH]c4ccc(F)cc34)NC(=O)[C@@H](C)NC(=O)[C@H](CCCCN)NC(=O)CCSCc3cccc(n3)CSC[C@@H](C(N)=O)NC(=O)[C@]3(C)CCCN3C2=O)cc1 [Compound 065] ([Mpa]K[dA][Trp(5-F)][Trp(5-F)]PTY(Me)[αMeP]C-NH2; linker 1-10 via Pyridine(2,6-diCH2))		

Source: US11530244B2, “Cyclic polypeptides for PCSK9 inhibition” (priority 2018, dated 2022)
